Structures can show the parent of a compound that is named as a salt. Where a SMILES comes first, the peptide text is derived from it. [ ]: non-standard residue; d: D form. The star is where a group is joined. pGlu = O=C1CC[C@@H](C(=O)O)N1; Cbz = O=C(OCc1ccccc1)*
Tested on: chickens with spontaneous muscular dystrophy
Assay: not given
Conditions: Libby et al., Science 1978; cited from earlier work

Question: With `CC(=O)N[C@@H](CC(C)C)C(=O)N[C@@H](CC(C)C)C(=O)N[C@H](C=O)CCCNC(=N)N` [Leupeptin, acetyl or propionyl-L-leucyl-L-leucyl-L-argininal] as the compound, how does the “inhibition of atrophy of the muscles” value read?
Answer: inhibits the atrophy of the muscles

Target: T1, plasmin (Homo sapiens, UniProt P00747)
T1 construct: fibrinogen substrate
Assay: Determination of Anti-Plasmin Activity
Format: biochemical
Conditions: fibrinogen substrate, plasminogen from human serum + streptokinase, pH 7.2, 37° C., 20 minutes; read-out: IC50 Plasmin (converted)
Method: The inhibitory activity of the compounds on each protease was determined as follows:
Buffer solution: pH 7.2, 0.01 M phosphate buffer solution.
Substrate: 2 g of fibrinogen (Armour Pharm. Co., U.S.A.) were dissolved in 100 ml of the phosphate buffer solution under heat.
Enzyme: The human serum was mixed with 20 times as much water, and after acetic acid had been added into the mixture to adjust it to pH 5.2, the solution was left at room temperature for half an hour. The precipitates obtained by centrifugation at 3,000 rpm for 10 minutes was dissolved in an equal quantity of the buffer solution to that of the serum, and the resulting solution was subjected to centrigugation at 10,000 rpm for half an hour, whereby a plasminogen solution was obtained as the supernatant. A solution of streptokinase (Varidase, Lederle Lab., U.S.A.) having a concentration of 10,000 U/ml was prepared, and kept in a cold and dark place. Prior to use, it was diluted with the buffer solution into a solution having a concentration of 2,000 U/ml. The enzyme solution was adjusted prior to use so that 0.5 ml thereof might show an absorbance of about 0.4 at 280 nm after 20 minutes of reaction.
Method: 0.5 ml of the plasminogen solution, 0.3 ml of the phosphate buffer solution, 0.1 ml of the streptokinase solution, and 0.1 ml of the test sample or water were placed in a test tube (15 mm×100 mm). After the mixed solution in the test tube had been heated at 37° C. for three minutes, 2.0 ml of the fibrinogen solution were added into the solution in the test tube, and reacted therewith at 37° C. for 20 minutes. When the reaction had been completed, 1.5 ml of a 1.7 M perchloric acid solution were added into the test tube, and its contents were shaken slightly. After the test tube had been stood at room temperature for an hour, its contents were subjected to centrigugation at 3,000 rpm for 10 minutes. The absorbance (a) of the supernatant thus obtained was measured at 280 nm. The absorbance (b) of the controll solution not containing any compound of this invention was also measured.
The inhibition coefficients of the compounds of this invention on each enzyme were calculated from the absorbances (a) and (b) obtained as hereinabove described, in accordance with the following formula: [formula] These inhibition rates were obtained for various concentrations of the compounds according to this invention, and the concentration of a 50% inhibition (IC50) were calculated therefrom.

T1 sequence (P00779 27-440): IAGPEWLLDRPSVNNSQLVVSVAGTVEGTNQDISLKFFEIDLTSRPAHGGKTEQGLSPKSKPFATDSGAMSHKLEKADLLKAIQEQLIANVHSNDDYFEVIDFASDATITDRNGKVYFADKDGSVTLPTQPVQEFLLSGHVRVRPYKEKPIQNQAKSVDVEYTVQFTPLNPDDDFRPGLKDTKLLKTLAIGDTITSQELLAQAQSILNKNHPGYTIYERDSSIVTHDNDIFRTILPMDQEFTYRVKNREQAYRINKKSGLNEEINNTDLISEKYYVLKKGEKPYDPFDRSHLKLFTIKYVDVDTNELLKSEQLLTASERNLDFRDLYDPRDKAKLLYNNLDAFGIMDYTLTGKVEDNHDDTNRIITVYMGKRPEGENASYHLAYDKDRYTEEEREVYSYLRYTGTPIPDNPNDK
T1 sequence (P00747 97-810): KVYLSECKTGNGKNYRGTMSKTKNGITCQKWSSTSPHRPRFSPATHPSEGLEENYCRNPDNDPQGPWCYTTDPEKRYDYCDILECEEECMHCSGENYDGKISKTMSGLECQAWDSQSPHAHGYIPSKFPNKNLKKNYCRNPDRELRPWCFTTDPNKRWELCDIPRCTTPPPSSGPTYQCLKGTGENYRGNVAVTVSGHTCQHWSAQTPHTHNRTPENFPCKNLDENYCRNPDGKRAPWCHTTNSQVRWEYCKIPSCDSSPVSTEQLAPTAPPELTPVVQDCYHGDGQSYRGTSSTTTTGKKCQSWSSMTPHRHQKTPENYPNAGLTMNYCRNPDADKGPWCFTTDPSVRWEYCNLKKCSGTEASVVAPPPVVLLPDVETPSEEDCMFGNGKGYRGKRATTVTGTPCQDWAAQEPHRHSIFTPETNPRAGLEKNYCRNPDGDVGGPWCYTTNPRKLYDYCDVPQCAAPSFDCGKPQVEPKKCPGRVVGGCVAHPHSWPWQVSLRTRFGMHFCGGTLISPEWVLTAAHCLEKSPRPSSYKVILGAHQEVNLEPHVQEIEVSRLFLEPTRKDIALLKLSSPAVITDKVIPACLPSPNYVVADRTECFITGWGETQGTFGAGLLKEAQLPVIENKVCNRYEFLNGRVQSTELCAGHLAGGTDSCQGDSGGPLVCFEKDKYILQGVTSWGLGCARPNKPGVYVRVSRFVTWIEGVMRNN

Question: Which IC50 does the source give for `CC(C)C[C@H](NC(=O)C(O)c1ccccc1)C(=O)N[C@H](C=O)CCCNC(=N)N` (mixture of isomers) [Compound No. 35, DL-Mandelyl-L-leucyl-L-argininal hydrochloride] here?
Answer: 3.17 µM

Question: For `CCCC(=O)N[C@@H](CC(C)C)C(=O)N[C@H](C=O)CCCNC(=N)N` [Compound No. 1, n-Butanoyl-L-leucyl-L-argininal hydrochloride], which IC50 is on record?
Answer: 37.8 µM

Question: Which IC50 does the source give for `CCC(CC)C(=O)N[C@@H](CC(C)C)C(=O)N[C@H](C=O)CCCNC(=N)N` [Compound No. 2, 2-Ethylbutanoly-L-leucyl-L-argininal hydrochloride] here?
Answer: 81.2 µM

Question: Which IC50 does the source give for `CCCCCC(=O)N[C@@H](CC(C)C)C(=O)N[C@H](C=O)CCCNC(=N)N` [Compound No. 3, n-Hexanoly-L-leucyl-L-argininal hydrochloride] here?
Answer: 16.8 µM

Question: Which IC50 does the source give for `CC(C)CC(=O)N[C@@H](CC(C)C)C(=O)N[C@H](C=O)CCCNC(=N)N` [Compound No. 4, 3-Methylbutanoyl-L-leucyl-L-argininal hydrochloride] here?
Answer: 21.4 µM

Question: With `CCCCCCCCC(=O)N[C@@H](CC(C)C)C(=O)N[C@H](C=O)CCCNC(=N)N` [Compound No. 5, n-Nonanoyl-L-leucyl-L-argininal hydrochloride] as the compound, how does the IC50 read?
Answer: 2.68 µM

Question: Which IC50 does the source give for `CC(C)C[C@H](NC(=O)C1CCCCC1)C(=O)N[C@H](C=O)CCCNC(=N)N` [Compound No. 6, Cyclohexanecarbonyl-L-leucyl-L-argininal hydrochloride] here?
Answer: 56 µM

Question: For `CC(C)C[C@H](NC(=O)c1ccccc1)C(=O)N[C@H](C=O)CCCNC(=N)N` [Compound No. 8, Benzoyl-L-leucyl-L-argininal hydrochloride], which IC50 is on record?
Answer: 44.4 µM

Question: Which IC50 does the source give for `CC(C)C[C@H](NC(=O)c1cccc(Cl)c1)C(=O)N[C@H](C=O)CCCNC(=N)N` [Compound No. 9, m-Chlorobenzoyl-L-leucyl-L-argininal hydrochloride] here?
Answer: 13.4 µM

Question: Which IC50 does the source give for `Cc1ccc(C(=O)N[C@@H](CC(C)C)C(=O)N[C@H](C=O)CCCNC(=N)N)cc1` [Compound No. 10, p-Methylbenzoyl-L-leucyl-L-argininal hydrochloride] here?
Answer: 32.9 µM

Question: With `COc1ccc(C(=O)N[C@@H](CC(C)C)C(=O)N[C@H](C=O)CCCNC(=N)N)cc1` [Compound No. 11, p-Methoxybenzoyl-L-leucyl-L-argininal hydrochloride] as the compound, how does the IC50 read?
Answer: 39.1 µM

Question: With `CC(C)C[C@H](NC(=O)c1ccc([N+](=O)[O-])cc1)C(=O)N[C@H](C=O)CCCNC(=N)N` [Compound No. 12, p-Nitrobenzoyl-L-leucyl-L-argininal hydrochloride] as the compound, how does the IC50 read?
Answer: 30.6 µM

Question: For `CC(C)C[C@H](NS(=O)(=O)c1ccccc1)C(=O)N[C@H](C=O)CCCNC(=N)N` [Compound No. 13, Benzenesulfonyl-L-leucyl-L-argininal hydrochloride], which IC50 is on record?
Answer: 23.9 µM

Question: With `Cc1ccc(S(=O)(=O)N[C@@H](CC(C)C)C(=O)N[C@H](C=O)CCCNC(=N)N)cc1` [Compound No. 14, p-Toluenesulfonyl-L-leucyl-L-argininal hydrochloride] as the compound, how does the IC50 read?
Answer: 14.5 µM

Question: Which IC50 does the source give for `CC(C)C[C@H](NC(=O)Cc1ccccc1)C(=O)N[C@H](C=O)CCCNC(=N)N` [Compound No. 15, Phenylacetyl-L-leucyl-L-argininal hydrochloride] here?
Answer: 14.6 µM

Question: Which IC50 does the source give for `CC(C)C[C@H](NC(=O)Cc1ccccc1[N+](=O)[O-])C(=O)N[C@H](C=O)CCCNC(=N)N` [Compound No. 16, o-Nitrophenylacetyl-L-leucyl-L-argininal hydrochloride] here?
Answer: 42.5 µM

Question: Which IC50 does the source give for `CC(C)C[C@H](NC(=O)Cc1ccc([N+](=O)[O-])cc1)C(=O)N[C@H](C=O)CCCNC(=N)N` [Compound No. 17, p-Nitrophenylacetyl-L-leucyl-L-argininal hydrochloride] here?
Answer: 3.61 µM

Question: With `CC(C)C[C@H](NC(=O)Cc1ccccc1O)C(=O)N[C@H](C=O)CCCNC(=N)N` [Compound No. 18, o-Hydroxyphenylacetyl-L-leucyl-L-argininal hydrochloride] as the compound, how does the IC50 read?
Answer: 12.9 µM

Question: For `CC(C)C[C@H](NS(=O)(=O)c1cccc2ccccc12)C(=O)N[C@H](C=O)CCCNC(=N)N` [Compound No. 20, 1-Naphthalenesulfonyl-L-leucyl-L-argininal hydrochloride], which IC50 is on record?
Answer: 28.2 µM

Question: Which IC50 does the source give for `CC(C)C[C@H](NS(=O)(=O)c1cccc2c(N(C)C)cccc12)C(=O)N[C@H](C=O)CCCNC(=N)N` [Compound No. 21, 5-Dimethylamino-1-naphthalenesulfonyl-L-leucyl-L-argininal 2 hydrochloride] here?
Answer: 24.4 µM

Question: For `CC(C)C[C@H](NC(=O)OCc1ccccc1)C(=O)N[C@H](C=O)CCCNC(=N)N` [Compound No. 25, Benzyloxycarbonyl-L-leucyl-L-argininal hydrochloride], which IC50 is on record?
Answer: 33.9 µM

Question: For `CC(C)C[C@H](NC(=O)c1ccco1)C(=O)N[C@H](C=O)CCCNC(=N)N` [Compound No. 26, Furan-2-carbonyl-L-leucyl-L-argininal hydrochloride], which IC50 is on record?
Answer: 90.3 µM

Question: For `CC(C)C[C@H](NC(=O)[C@@H]1CCC(=O)N1C(=O)OCc1ccccc1)C(=O)N[C@H](C=O)CCCNC(=N)N` [Compound No. 30, N-Benzyloxycarbonyl-L-pyroglutamyl-L-leucyl-L-argininal hydrochloride], which IC50 is on record?
Answer: 0.958 µM

Question: With `CC(C)C[C@H](NC(=O)[C@@H]1CCC(=O)N1)C(=O)N[C@H](C=O)CCCNC(=N)N` [Compound No. 31, L-Pyroglutamyl-L-leucyl-L-argininal hydrochloride] ([pGlu]-Leu-Arg-aldehyde) as the compound, how does the IC50 read?
Answer: 1.19 µM

Question: With `CC(C)C[C@H](NC(=O)[C@H](Cc1ccccc1)NC(=O)OCc1ccccc1)C(=O)N[C@H](C=O)CCCN=C(N)N` [Compound No. 36, N-Benzyloxycarbonyl-L-phenylalanyl-L-leucyl-L-argininal hydrochloride] (Cbz-Phe-Leu-Arg-aldehyde) as the compound, how does the IC50 read?
Answer: 1.24 µM

Question: Which IC50 does the source give for `CC(=O)N[C@@H](CC(C)C)C(=O)N[C@@H](CC(C)C)C(=O)N[C@H](C=O)CCCNC(=N)N` [Leupeptin, acetyl or propionyl-L-leucyl-L-leucyl-L-argininal] here?
Answer: 11 µM

Same assay, conditions: read-out: IC50 Plasmin; fibrinogen substrate, plasminogen from human serum + streptokinase, pH 7.2, 37° C., 20 minutes

Question: Which IC50 does the source give for `CC(C)C[C@H](NC(=O)c1ccncc1)C(=O)N[C@H](C=O)CCCNC(=N)N` [Compound No. 22, Isonicotinyl-L-leucyl-L-argininal hydrochloride] here?
Answer: 88.7 µM

Question: Which IC50 does the source give for `CC(C)C[C@H](NC(=O)c1cccnc1)C(=O)N[C@H](C=O)CCCNC(=N)N` [Compound No. 23, Nicotinyl-L-leucyl-L-argininal hydrochloride] here?
Answer: 23.9 µM

Question: Which IC50 does the source give for `CC(C)C[C@H](NC(=O)[C@@H](O)[C@@H](Cc1ccccc1)NC(=O)OCc1ccccc1)C(=O)N[C@H](C=O)CCCNC(=N)N` [Compound No. 37, N-Benzyloxycarbonyl-(2S,3R)-3-amino-2-hydroxy-4-phenylbutanoyl-L-leucyl-L-argininal hydrochloride] here?
Answer: 2.4 µM

Tested on: fibrinolytic system
Assay: not given
Conditions: cited from earlier work

Question: With `CC(=O)N[C@@H](CC(C)C)C(=O)N[C@@H](CC(C)C)C(=O)N[C@H](C=O)CCCNC(=N)N` [Leupeptin, acetyl or propionyl-L-leucyl-L-leucyl-L-argininal] as the compound, how does the “pharmacological action on the fibrinolytic system” value read?
Answer: a pharmacological action on the fibrinolytic system
